Values quoted from earlier work, collected in patent US20120258170A1, “PHARMACEUTICAL CO-CRYSTALS OF QUERCETIN” (Nutracryst Therapeutics Private Limited, priority 2009, published 2012).

Key:
[1] = P<0.05; cited from earlier work
[2] = system: AMP-activated protein kinase (AMPK); conditions: HepG2 cells; cited from earlier work
[3] = biological target: human lens aldose reductase (Homo sapiens, UniProt P15121); conditions: cited from earlier work
HeLa cells = conditions: Quercetin pretreatment; cited from earlier work
[4] = biological target: angiotensin-converting enzyme (Homo sapiens, UniProt P12821); conditions: cited from earlier work
[5] = cited from earlier work

angiotensin-converting enzyme, sequence (P12821 30-1306, species assumed): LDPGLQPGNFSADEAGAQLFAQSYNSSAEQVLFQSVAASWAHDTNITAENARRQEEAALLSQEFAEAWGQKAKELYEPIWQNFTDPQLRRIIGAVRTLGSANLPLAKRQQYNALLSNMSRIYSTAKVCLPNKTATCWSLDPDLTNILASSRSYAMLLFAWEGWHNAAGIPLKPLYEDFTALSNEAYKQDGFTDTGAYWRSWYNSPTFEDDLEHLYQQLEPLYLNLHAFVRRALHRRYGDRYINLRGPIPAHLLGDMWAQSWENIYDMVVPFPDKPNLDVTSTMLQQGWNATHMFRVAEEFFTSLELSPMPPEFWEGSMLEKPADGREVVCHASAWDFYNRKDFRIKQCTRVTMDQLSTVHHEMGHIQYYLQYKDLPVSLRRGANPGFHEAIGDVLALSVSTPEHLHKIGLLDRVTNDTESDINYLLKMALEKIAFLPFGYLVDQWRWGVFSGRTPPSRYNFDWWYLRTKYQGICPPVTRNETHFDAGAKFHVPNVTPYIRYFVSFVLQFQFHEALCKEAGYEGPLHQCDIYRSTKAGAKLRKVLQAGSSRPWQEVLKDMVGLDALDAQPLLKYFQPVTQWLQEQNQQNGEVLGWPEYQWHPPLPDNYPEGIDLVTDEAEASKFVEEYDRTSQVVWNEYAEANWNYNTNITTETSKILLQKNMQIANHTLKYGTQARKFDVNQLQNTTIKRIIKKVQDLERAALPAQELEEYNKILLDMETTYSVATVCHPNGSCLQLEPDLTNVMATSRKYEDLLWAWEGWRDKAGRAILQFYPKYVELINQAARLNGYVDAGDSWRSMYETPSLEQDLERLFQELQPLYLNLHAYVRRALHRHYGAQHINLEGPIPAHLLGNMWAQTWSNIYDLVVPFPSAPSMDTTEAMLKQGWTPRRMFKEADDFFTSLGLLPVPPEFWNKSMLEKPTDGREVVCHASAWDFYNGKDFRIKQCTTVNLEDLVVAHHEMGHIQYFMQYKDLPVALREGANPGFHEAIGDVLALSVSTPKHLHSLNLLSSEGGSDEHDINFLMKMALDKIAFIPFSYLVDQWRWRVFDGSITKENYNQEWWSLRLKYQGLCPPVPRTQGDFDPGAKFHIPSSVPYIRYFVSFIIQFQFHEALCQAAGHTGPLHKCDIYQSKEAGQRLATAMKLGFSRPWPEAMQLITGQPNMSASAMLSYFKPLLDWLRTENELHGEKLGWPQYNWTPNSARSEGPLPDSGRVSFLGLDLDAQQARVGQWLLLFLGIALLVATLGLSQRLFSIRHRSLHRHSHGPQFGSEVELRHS

Compound | mRNA expression of PGC-1alpha and SIRT1, mtDNA and cytochrome C concentration [1] | maximal endurance capacity and voluntary wheel running activity [1] | AMPK phosphorylation [2] | inhibition of human lens aldose reductase [3] | cisplatin-induced apoptosis in HeLa cells (HeLa cells) | hypotensive effect of bradykinin ([4]; pretreatment 88.7 μmol/kg p.o., 45 min, 14.7 μmol/kg i.v., 5 min, bradykinin 10 nmol/kg i.v.) | hypertensive response to angiotensin I ([4]; same pretreatment, angiotensin I 0.1 nmol/kg iv) | Bioavailability [5] [%] | Half Life [5] [h]
O=c1c(O)c(-c2ccc(O)c(O)c2)oc2cc(O)cc(O)c12 [Quercetin] | increased | increase | increased | strong inhibitor | sensitizes | significantly potentiated | significantly reduced | – | –
N[C@@H](CC(=O)N1CCn2c(nnc2C(F)(F)F)C1)Cc1cc(F)c(F)cc1F [Sitagliptin] | – | – | – | – | – | – | – | 87 | 8 to 14
Oc1ccc(C=Cc2cc(O)cc(O)c2)cc1 [resveratrol] | – | – | increased | – | – | – | – | – | –
